Experimental findings from patent publication US6407130B1, “Carboxamide-substituted benzimidazoles having tryptase-inhibiting activity” (Boehringer Ingelheim Pharma KG, priority 1999, dated 2002) are described below.

Where a name gives a salt, the structure may show the parent alone.

The assay deals with T1, rh beta tryptase (Homo sapiens, UniProt Q15661).
T1 construct: purchased Promega
T1 sequence (Q15661 31-275): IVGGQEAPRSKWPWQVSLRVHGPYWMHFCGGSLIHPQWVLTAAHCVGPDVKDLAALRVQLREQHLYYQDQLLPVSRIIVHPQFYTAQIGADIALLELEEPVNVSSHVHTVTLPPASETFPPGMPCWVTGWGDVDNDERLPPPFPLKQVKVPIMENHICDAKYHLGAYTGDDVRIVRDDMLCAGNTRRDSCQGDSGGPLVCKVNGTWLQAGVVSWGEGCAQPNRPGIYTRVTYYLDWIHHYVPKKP
Kind of assay: tryptase inhibition test (cleavage of N-p-tosyl-Gly-Pro-Lys-para-nitroaniline, p-nitroaniline measured at 405 nm). It counts as biochemical. The note with it: Tris HCl buffer pH 7.4 with calcium and heparin; substrate 0.6 mM; 5 minutes' pre-incubation, 5 minutes incubation at 37° C. The procedure: The compounds according to the invention are characterised by their tryptase-inhibiting activity. This ability to inhibit tryptase was investigated using the test described as follows. The measurement is carried out in Tris HCl buffer (100 mM), which additionally contains calcium (5 mM) and heparin ([…]), at pH 7.4. The standard used is rh beta tryptase which may be obtained commercially from Promega, for example. The substrate used is N-p-tosyl-Gly-Pro-Lys-para-nitroaniline in a concentration of 0.6 mM. The substrate is digested with tryptase to form p-nitroaniline which can be measured at 405 nm. Usually, an incubation period of 5 minutes and an incubation temperature of 37° C. are chosen. The enzyme activity used is 0.91 U/ml. The measurements are carried out in an Autoanalyser (Cobas Bio) made by Hofmann LaRoche. The potential inhibitory substances are used in concentrations of 10 μM in the screening, the inhibition of the tryptase being given in percent. The IC50 is determined at over 70% inhibition (concentration at which 50% of the enzyme activity is inhibited). After 5 minutes' pre-incubation of the potential inhibitory substances, the substrate is added to start the reaction, the formation of p-nitroaniline being taken as a measurement of the enzyme activity after 5 minutes, after testing the linearity.
Consider `Cn1c(CCc2ccc(C(=N)N)cc2)nc2cc(N(Cc3cccc4ccccc34)C(=O)CN3CCC(O)(Cc4ccccc4)CC3)ccc21` [Example 69, N-{2-[2-(4-Amidinophenyl)-ethyl]-1-methyl-benzimidazol-5-yl}-N-( - naphthylmethyl)-[2-(4-benzyl-4-hydroxypiperidin-1-yl)-acetamide]-dihydrochloride], for which the IC50 is 18 nM.

As to `CN(C)CCCCC(=O)N(Cc1ccccc1)c1ccc2c(c1)nc(CCc1ccc(C(=N)N)cc1)n2C` [Example 26, N-{2-[2-(4-Amidinophenyl)-ethyl]-1-methyl-benzimidazol-5-yl}-N-benzyl-[5-dimethylamino-pentanoic acid amide]-dihydrochloride], the IC50 turned out to be 53 nM.

Turning to `Cn1c(CCc2ccc(C(=N)N)cc2)nc2cc(NC(=O)C(N)Cc3ccc(C(=N)N)cc3)ccc21` (centres unmarked) [Example 4, N-{2-[2-(4-Amidinophenyl)-ethyl]-1-methyl-benzimidazol-5-yl}-[2-amino-3-(p-amidinophenyl)-propionic Acid Amide]-trihydrochloride], the IC50 amounted to 55 nM.

Regarding `CN(C(=O)CCC1CCN(Cc2ccccc2)CC1)c1ccc2c(c1)nc(CCc1ccc(C(=N)N)cc1)n2C` [Example 2, N-{2-[2-(4-Amidinophenyl)-ethyl]-1-methyl-benzimidazol-5-yl}-N-methyl-[3-(N-benzyl-piperid-4-yl)-propionamide]-dihydrochloride], the IC50 came out at 190 nM.

`Cn1c(CCc2ccc(C(=N)N)cc2)nc2cc(N(Cc3ccccc3)C(=O)CCCN)ccc21` [Example 36, N-{2-[2-(4-Amidinophenyl)-ethyl]-1-methyl-benzimidazol-5-yl}-N-benzyl-[4-amino-butanoic acid amide]-dihydrochloride]: the IC50 was found to be 70 nM.

Take `Cn1c(CCc2ccc(C(=N)N)cc2)nc2cc(N(Cc3cccc4ccccc34)C(=O)CNCc3cccc(N)c3)ccc21` [Example 28, N-{2-[2-(4-Amidinophenyl)-ethyl]-1-methyl-benzimidazol-5-yl}-N-( - naphthylmethy)-[3-aminobenzylamino-acetamide]-trihydrochloride]: the IC50 was determined as 10 nM.

As to `Cn1c(CCc2ccc(C(=N)N)cc2)nc2cc(N(Cc3cccc4ccccc34)C(=O)CCCCCN)ccc21` [Example 31, N-{2-[2-(4-Amidinophenyl)-ethyl]-1-methyl-benzimidazol-5-yl}-N-( - naphthylmethyl)-[6-amino-hexanoic acid amide]-dihydrochloride], the IC50 turned out to be 30 nM.

With “N-{2-[2-(4-Amidinophenyl)-ethyl]-1- methyl-benzimidazol-5-yl}-N-( - naphthylmethyl)-[2-(1-pyridin-2-yl- piperazin-4-yl)-acetamide]-trihydro- chloride [Example 79]”, the IC50 is 20.1 nM.

As to `Cn1c(CCc2ccc(C(=N)N)cc2)nc2cc(N(Cc3cccc4ccccc34)C(=O)CN3CCCCC3)ccc21` [Example 81, N-{2-[2-(4-Amidinophenyl)-ethyl]-1-methyl-benzimidazol-5-yl}-N-( - naphthylmethyl)-[2-(piperidin-1-yl)-acetamide]-dihydrochloride], the IC50 is 63.1 nM.

Consider `Cn1c(CCc2ccc(C(=N)N)cc2)nc2cc(N(Cc3ccncc3)C(=O)CNCc3ccc(N)cc3)ccc21` [Example 74, N-{2-[2-(4-Amidinophenyl)-ethyl]-1-methyl-benzimidazol-5-yl}-N-(-pyridin-4-ylmethyl)-[2-(4-aminobenzylamino)-acetamide]-dihydrochloride], for which the IC50 came to 57.4 nM.

With `CN(C)CCCNCC(=O)N(Cc1cccc2ccccc12)c1ccc2c(c1)nc(CCc1ccc(C(=N)N)cc1)n2C` [Example 78, N-{2-[2-(4-Amidinophenyl)-ethyl]-1-methyl-benzimidazol-5-yl}-N-(α-naphthylmethyl)-[2-(N-(3-dimethylaminopropyl)-amino)-acetamide]-trihydrochloride], the IC50 worked out at 21.3 nM.

As to `Cn1c(CCc2ccc(C(=N)N)cc2)nc2cc(N(Cc3cccc4ccccc34)C(=O)CCC3CCNCC3)ccc21` [Example 38, N-{2-[2-(4-Amidinophenyl)-ethyl]-1-methyl-benzimidazol-5-yl}-N-( - naphthylmethyl)-[3-(piperidin-4-yl)-propionamide]-dihydrochloride], the concentration for half-maximal inhibition (IC50) worked out at 47 nM.

On to `CCOC(=O)C1CCN(CC(=O)N(Cc2cccc3ccccc23)c2ccc3c(c2)nc(CCc2ccc(C(=N)N)cc2)n3C)CC1` [Example 71, N-{2-[2-(4-Amidinophenyl)-ethyl]-1-methyl-benzimidazol-5-yl}-N-( - naphthylmethyl)-[2-(4-ethylcarboxylate-4-piperidin-1-yl)-acetamide]-dihydrochloride], for which the IC50 was 15.9 nM.

As to `Cn1c(CCc2ccc(C(=N)N)cc2)nc2cc(N(Cc3ccc4ccccc4c3)C(=O)CNCc3ccc([N+](=O)[O-])cc3)ccc21` [Example 53, N-{2-[2-(4-Amidinophenyl)-ethyl]-1-methyl-benzimidazol-5-yl}-N-(β-naphthylmethyl)-[2-(4-nitrobenzylamino)-acetamide]-hydrochloride], the IC50 amounted to 92 nM.

As to `Cn1c(CCc2ccc(C(=N)N)cc2)nc2cc(N(Cc3cccc4ccccc34)C(=O)Cc3cccc4ccccc34)ccc21` [Example 80, N-{2-[2-(4-Amidinophenyl)-ethyl]-1-methyl-benzimidazol-5-yl}-N-( - naphthylmethyl)-[2-( -naphthyl)-acetamide]-hydrochloride], the IC50 was found to be 30.1 nM.

With `Cn1c(CCc2ccc(C(=N)N)cc2)nc2cc(N(Cc3cccc4ccccc34)C(=O)CN3CCC[C@H]3C(N)=O)ccc21` [Example 72], the IC50 was 58.4 nM.

Turning to `Cn1c(CCc2ccc(C(=N)N)cc2)nc2cc(N(Cc3cccc4ccccc34)C(=O)CCc3cccc(C(=N)N)c3)ccc21` [Example 19, N-{2-[2-(4-Amidinophenyl)-ethyl]-1-methyl-benzimidazol-5-yl}-N-- naphthylmethyl-[3-(3-amidinophenyl)-propionamide]-dihydrochloride], the IC50 came to 16 nM.

With `CN(CC(=O)N(Cc1cccc2ccccc12)c1ccc2c(c1)nc(CCc1ccc(C(=N)N)cc1)n2C)Cc1cccc(C(=N)N)c1` [Example 18, N-{2-[2-(4-Amidinophenyl)-ethyl-1-methyl-benzimidazol-5-yl}-N-(- naphthylmethylamino)-N-methyl-N-[3-amidinobenzyl]-acetamide-trihydrochloride], the IC50 was 12 nM.

Consider “N-{2-[2-(4-Amidinophenyl)-ethyl]-1- methyl-benzimidazol-5-yl}-N-( - naphthylmethylamino)-[2-(4- trifluoromethylbenzylamino)- acetamide]-dihydrochloride [Example 44]”, for which the IC50 worked out at 31 nM.

As to `CCN(CC)CC(=O)N(Cc1cccc2ccccc12)c1ccc2c(c1)nc(CCc1ccc(C(=N)N)cc1)n2C` [Example 66, N-{2-[2-(4-Amidinophenyl)-ethyl]-1-methyl-benzimidazol-5-yl}-N-( - naphthylmethyl)-[2-diethylaminoacetamide]-dihydrochloride], the IC50 worked out at 27 nM.

For the compound `Cn1c(CCc2ccc(C(=N)N)cc2)nc2cc(N(Cc3cccc4ccccc34)C(=O)CCc3ccccn3)ccc21` [Example 68, N-{2-[2-(4-Amidinophenyl)-ethyl]-1-methyl-benzimidazol-5-yl}-N-( - naphthylmethyl)-[3-(pyridin-2-yl)-propionamide]-hydrochloride], the IC50 worked out at 38 nM.

Consider `Cc1ccc(CNCC(=O)N(Cc2cccc3ccccc23)c2ccc3c(c2)nc(CCc2ccc(C(=N)N)cc2)n3C)cc1` [Example 60, N-{2-[2-(4-Amidinophenyl)-ethyl]-1-methyl-benzimidazol-5-yl}-N-(- naphthylmethyl)-[2-(4-methylbenzylamino)-acetamide]-dihydrochloride], for which the IC50 was 25 nM.

As for `CN(CC(=O)N(Cc1cccc2ccccc12)c1ccc2c(c1)nc(CCc1ccc(C(=N)N)cc1)n2C)Cc1ccc(N2CCCC2)cc1` [Example 83, N-{2-[2-(4-Amidinophenyl)-ethyl]-1-methyl-benzimidazol-5-yl}-N-( - naphthylmethyl)-[2-(N-(4-pyrrolidin-1-ylbenzyl)-N-methylamino)-acetamide]-dihydrochloride], the IC50 was determined as 7.6 nM.

Turning to `CCOC(=O)c1ccc(CNCC(=O)N(Cc2cccc3ccccc23)c2ccc3c(c2)nc(CCc2ccc(C(=N)N)cc2)n3C)cc1` [Example 65, N-{2-[2-(4-Amidinophenyl)-ethyl]-1-methyl-benzimidazol-5-yl}-N-( - naphthylmethyl)-[2-(4-ethylcarboxylatbenzylamino)-acetamide]-dihydrochloride], the IC50 turned out to be 27 nM.

With `COc1ccc(CNCC(=O)N(Cc2cccc3ccccc23)c2ccc3c(c2)nc(CCc2ccc(C(=N)N)cc2)n3C)cc1` [Example 43, N-{2-[2-(4-Amidinophenyl)-ethyl]-1-methyl-benzimidazol-5-yl}-N-(- naphthylmethyl)-[2-(4-methoxybenzylamino)-acetamide]-dihydrochloride], the IC50 is 10 nM.

Take `Cn1c(CCc2ccc(C(=N)N)cc2)nc2cc(N(Cc3cccc4ccccc34)C(=O)CCCN)ccc21` [Example 20, N-{2-[2-(4-Amidinophenyl)-ethyl]-1-methyl-benzimidazol-5-yl}-N-- naphthylmethyl-[4-amino-butanoic acid amide]-dihydrochloride]: the IC50 is 39 nM.
